Key:
[1] = 101.33 kPa, Liquid; for viscosity: Concentric cylinders viscometry; for mass density: Vibrating tube method
[2] = refractive index (Na D-line) (dimensionless); conditions: 101.33 kPa, Liquid, Standard Abbe refractometry

CCCCCC[n+]1ccn(C)c1.O=S(=O)([N-]S(=O)(=O)C(F)(F)F)C(F)(F)F
298.15 K
Conditions | mass density [kg/m3] | refractive index | viscosity [mPa·s]
[1] | 1370.8 | – | 68.54
[2] | – | 1.4318 | –

CCCCCCCC[n+]1ccccc1.O=S(=O)([N-]S(=O)(=O)C(F)(F)F)C(F)(F)F [1-octylpyridinium bis((trifluoromethyl)sulfonyl)amide]
Conditions | mass density, [1] [kg/m3] | refractive index, [2] | viscosity, [1] [mPa·s]
293.15 K | 1331.3 | 1.4487 | 149.53
298.15 K | 1326.8 | 1.44723 | 114.34
303.15 K | 1322.5 | 1.44568 | 88.74
308.15 K | 1318.2 | 1.44413 | 70.13
313.15 K | 1313.9 | 1.44262 | 56.33
318.15 K | 1309.6 | 1.44115 | 45.9
323.15 K | 1305.3 | 1.43972 | 37.91
328.15 K | 1301.1 | 1.43827 | 31.7
333.15 K | 1296.8 | 1.43681 | 26.8
338.15 K | 1292.6 | – | 22.89
343.15 K | 1288.3 | – | 19.73
348.15 K | 1284.1 | – | 17.15
353.15 K | 1279.9 | – | 15.02

CCCCCCCCCCCC[n+]1ccccc1.O=S(=O)([N-]S(=O)(=O)C(F)(F)F)C(F)(F)F [1-dodecylpyridinium bis(trifluoromethylsulfonyl)imide]
Conditions | mass density, [1] [kg/m3] | refractive index, [2] | viscosity, [1] [mPa·s]
293.15 K | 1253.1 | 1.45131 | 269.72
298.15 K | 1248.8 | 1.44969 | 200.45
303.15 K | 1244.6 | 1.44818 | 151.42
308.15 K | 1240.5 | 1.44668 | 116.63
313.15 K | 1236.4 | 1.44524 | 91.45
318.15 K | 1232.3 | 1.44379 | 72.83
323.15 K | 1228.2 | 1.44235 | 58.88
328.15 K | 1224.1 | 1.4409 | 48.25
333.15 K | 1220.1 | 1.43946 | 40.02
338.15 K | 1216 | – | 33.59
343.15 K | 1212 | – | 28.47
348.15 K | 1208 | – | 24.36
353.15 K | 1204 | – | 21.03

CCCC[n+]1ccccc1.O=S(=O)([N-]S(=O)(=O)C(F)(F)F)C(F)(F)F [1-butylpyridinium bis[(trifluoromethyl)sulfonyl]imide]
Conditions | mass density, [1] [kg/m3] | refractive index, [2] | viscosity, [1] [mPa·s]
293.15 K | 1452.5 | 1.44537 | 76.16
298.15 K | 1447.6 | 1.44379 | 60.41
303.15 K | 1442.9 | 1.44211 | 48.55
308.15 K | 1438.3 | 1.44057 | 39.65
313.15 K | 1433.6 | 1.43911 | 32.83
318.15 K | 1429 | 1.43769 | 27.56
323.15 K | 1424.3 | 1.43631 | 23.4
328.15 K | 1419.7 | 1.43496 | 20.08
333.15 K | 1415.1 | 1.43359 | 17.4
338.15 K | 1410.5 | – | 15.2
343.15 K | 1406 | – | 13.39
348.15 K | 1401.5 | – | 11.87
353.15 K | 1397 | – | 10.59

CCCCCCCCCC[n+]1ccccc1.O=S(=O)([N-]S(=O)(=O)C(F)(F)F)C(F)(F)F [1-decylpyridinium bis(trifluoromethylsulfonyl)imide]
Conditions | mass density, [1] [kg/m3] | refractive index, [2] | viscosity, [1] [mPa·s]
293.15 K | 1287.8 | 1.45007 | 201.44
298.15 K | 1283.5 | 1.44859 | 151.93
303.15 K | 1279.2 | 1.44703 | 116.39
308.15 K | 1275.1 | 1.44546 | 90.82
313.15 K | 1270.9 | 1.44391 | 72.07
318.15 K | 1266.8 | 1.44239 | 58.06
323.15 K | 1262.6 | 1.44091 | 47.46
328.15 K | 1258.5 | 1.43943 | 39.29
333.15 K | 1254.3 | 1.43796 | 32.91
338.15 K | 1250.2 | – | 27.86
343.15 K | 1246.1 | – | 23.81
348.15 K | 1242 | – | 20.54
353.15 K | 1237.9 | – | 17.85

From the NIST ThermoML archive (doi:10.1016/j.jct.2009.11.004)
